Results published in PubChem BioAssay (NCI).
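Exposure lasted 48 hours, with cells grown in 96-well plates and compounds tested at five concentrations. GI50 = concentration required for 50% inhibition of growth. The concentration for full growth arrest is given as TGI.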

Experiments:
Assay in all cases: NCI tumour cell line growth inhibition, 48 h
CCRF-CEM leukemia = system: CCRF-CEM leukemia
HCC-2998 colon = system: HCC-2998 colon
HCT-15 colon = system: HCT-15 colon
HT29 colon = system: HT29 colon
MALME-3M melanoma = system: MALME-3M melanoma
NCI-H226 lung = system: NCI-H226 lung
RPMI-8226 leukemia = system: RPMI-8226 leukemia
SF-295 CNS = system: SF-295 CNS
TK-10 renal = system: TK-10 renal
UO-31 renal = system: UO-31 renal

SMILES	GI50 (CCRF-CEM leukemia) [µM]	TGI (CCRF-CEM leukemia) [µM]	GI50 (HCC-2998 colon) [µM]	TGI (HCC-2998 colon) [µM]	GI50 (HCT-15 colon) [µM]	TGI (HCT-15 colon) [µM]	GI50 (HT29 colon) [µM]	TGI (HT29 colon) [µM]	TGI (MALME-3M melanoma) [µM]	GI50 (NCI-H226 lung) [µM]	TGI (NCI-H226 lung) [µM]	GI50 (RPMI-8226 leukemia) [µM]	TGI (RPMI-8226 leukemia) [µM]	GI50 (SF-295 CNS) [µM]	TGI (SF-295 CNS) [µM]	GI50 (TK-10 renal) [µM]	TGI (TK-10 renal) [µM]	GI50 (UO-31 renal) [µM]	TGI (UO-31 renal) [µM]	GI50 (MALME-3M melanoma) [µM]
CC(C)NCCCCCNc1cc(O)cc2cccnc12	> 51.2	> 100	> 44.2	> 100	> 100	> 100	31.6	> 100	> 100	> 100	> 100	> 23.1	> 100	> 100	> 100	> 100	> 100	85.2	> 100	–
CCCC(=O)Nc1ncnc2c1ncn2C1OC2COP(=O)(O)OC2C1OC(=O)CCC (stereo unspecified)	–	> 1000	> 1000	> 1000	> 1000	> 1000	> 1000	> 1000	> 1000	> 1000	> 1000	–	> 1000	> 1000	> 1000	–	> 1000	–	> 1000	> 1000
COC(=O)C(C(=O)C(=O)Nc1ccc([N+](=O)[O-])cc1)c1nc2cc(C)c(C)cc2[nH]c1=O (stereo unspecified)	–	> 100	–	> 100	–	> 100	–	> 100	> 100	–	> 100	–	> 100	–	> 100	–	> 100	–	> 100	–
O=c1nc(-c2ccccc2)scc1-c1ccccc1	–	> 100	–	–	–	> 100	–	> 100	> 100	–	> 100	–	> 100	–	> 100	–	> 100	–	> 100	–
CCCN(CCC)c1ccc(/C=N/NC(=O)c2cccnc2)cc1	37.1	> 100	25	> 100	19.8	> 100	11	32	> 100	47.6	> 100	80.5	> 100	16.5	55.6	32.4	> 100	43.3	> 100	41.8
COc1ccc(NC(=O)CC(=O)n2nc(-c3ccccc3)c(N=Nc3ccccc3C)c2-c2ccccc2)cc1	–	> 100	–	> 100	–	> 61.3	–	> 100	81.9	–	63.7	–	> 100	–	45.6	–	47.2	–	> 92	–
CCNC(=O)c1ccc2c(c1)nc(-c1ccc(Cl)cc1)n2-c1cc(C(C)(C)C)[nH]n1	2.94	40.7	3.96	26.7	3.26	18	3.13	9.71	17.2	2.56	9.24	2.84	14.1	2.82	11.6	6.14	71.3	3.46	44.5	3.47
CC1=C2[C@@H](c3ccccc3)C3C=CC2(c2ccccc23)N(C(=O)Nc2cccc3ccccc23)C1=O (stereo partly specified)	–	> 100	–	> 100	–	> 100	–	–	> 100	–	–	–	> 100	–	> 100	–	–	–	> 100	–
O=C1C(Cl)=C(Nc2cccc(O)c2)C(=O)N1c1ccc(Cl)cc1Cl	17.5	46.9	–	–	29.4	> 100	35.1	> 100	92	–	–	7.55	30.7	27.2	86	> 100	> 100	50.7	> 100	31.6
COc1cc(C2C(C(=O)OCc3ccccc3)=C(C)NC(C)=C2C(=O)OCc2ccccc2)cc(OC)c1OC	–	–	–	–	–	–	3.35	> 100	–	2.41	> 100	2.09	> 100	2.86	> 100	–	–	2.22	> 100	–
CC(=O)Nc1ccc(S(=O)(=O)c2ccc(NC(C)=O)cc2)cc1	> 100	> 100	> 100	> 100	> 100	> 100	> 100	> 100	> 100	> 100	> 100	> 100	> 100	–	–	> 100	> 100	> 100	> 100	34.5
O=C1C(Cl)=C(Nc2ccccn2)C(=O)c2ccccc21	3.79	12.5	17.8	33.7	3.54	> 100	26.2	62.5	3.65	1.92	5.49	2.15	7.03	–	–	12.9	25.5	2.27	7.2	1.81
Cc1nn(-c2ccccc2)c(C)c1/C=N/N1CCN(Cc2ccccc2)CC1	–	–	–	–	30.4	> 100	43	> 100	–	27.8	96.2	19.9	48.9	> 100	> 100	28.7	> 100	66.4	> 100	–
CN1CCN(CCCOc2ccc3nc(Nc4ccc(C(F)(F)F)c(Cl)c4)ccc3c2)CC1	1.57	3.64	1.72	3.26	1.14	2.62	0.493	1.87	–	–	–	1.75	4.12	1.67	3.2	1.8	3.51	1.72	3.68	–
Cc1csc(-c2ccc3c(c2)COC3(CCCN(C)C)c2ccc(F)cc2)c1 (stereo unspecified)	2.21	5.35	1.79	3.3	1.85	3.51	–	–	3.34	1.92	3.76	2.2	4.76	1.84	3.52	1.83	3.72	1.46	2.79	1.74
